Experimental data from patent US12742284B2, “Antimicrobial polymer coatings on textiles” (MICROBAN PRODUCTS COMPANY, priority 2022, dated 2023).

System: Kp
Assay: AATCC TM 100 antimicrobial test on treated polyester after home launderings
Conditions: for AATCC TM 100, Antimicrobial Test result (Kp - log reduction): 1.5% o.w.f. on polyester

[Na+].[O-][n+]1ccccc1[S-] [Sodium Pyrithione]
AATCC TM 100, Antimicrobial Test result (Kp - log reduction) (1 HL): 0.5 log reduction | AATCC TM 100, Antimicrobial Test result (Kp - log reduction) (25 HL): 0 log reduction | antimicrobial performance (in words) (after one cycle of home laundering): little efficacy | antimicrobial performance (in words) (after twenty-five home launderings): did not have antimicrobial performance
